Patent US8546421B1, “Oncogenic-RAS-signal dependent lethal compounds” (The Trustees of Columbia University in the City of New York, priority 2007, dated 2013)
Converted amounts (≈) assume the structure as drawn.

How the values were obtained:
[1] = tested on: MOLT-4; assay: NCI60 anti-cancer screening
[2] = tested on: K-562; assay: NCI60 anti-cancer screening; conditions: Homo sapiens
[3] = tested on: ACHN; assay: NCI60 anti-cancer screening
[4] = tested on: A549, Calu-1, PaCa, and HCT116 cells; assay: Alamar blue assay in KRAS-mutation-harboring cancer cells; assay type: cell-based, human
Experimental: A549, Calu-1, HCT116 and MIA PaCa-2 cell lines have an oncogenic mutation in the KRAS gene. Compounds which tested positive in the oncogenic HRAS primary screen were also tested for their selectivity against oncogenic KRAS which is more commonly mutated in human cancers.

[5] = tested on: DU-145; assay: NCI60 anti-cancer screening
[6] = tested on: BT-549; assay: NCI60 anti-cancer screening
[7] = tested on: BJ-TERT/LT/ST/RAS^V12 cells; assay: Alamar blue growth inhibition in dilution series; assay type: cell-based, human; conditions: Homo sapiens, alamar blue
[8] = tested on: SK-MEL-5; assay: NCI60 anti-cancer screening
[9] = tested on: LOX IMVI; assay: NCI60 anti-cancer screening
[10] = tested on: TK-10; assay: NCI60 anti-cancer screening
[11] = tested on: SF-268; assay: NCI60 anti-cancer screening
[12] = tested on: SK-MEL-28; assay: NCI60 anti-cancer screening
[13] = tested on: OVCAR-8; assay: NCI60 anti-cancer screening
[14] = tested on: OVCAR-4; assay: NCI60 anti-cancer screening
[15] = tested on: 786-0; assay: NCI60 anti-cancer screening
[16] = tested on: T-47D; assay: NCI60 anti-cancer screening
[17] = tested on: MALME-3M; assay: NCI60 anti-cancer screening
[18] = tested on: NCI-H23; assay: NCI60 anti-cancer screening
[19] = tested on: MDA-MB-231/ATCC; assay: NCI60 anti-cancer screening
[20] = tested on: CCRF-CEM; assay: NCI60 anti-cancer screening
[21] = tested on: COLO 205; assay: NCI60 anti-cancer screening
[22] = tested on: UACC-257; assay: NCI60 anti-cancer screening
[23] = tested on: SR; assay: NCI60 anti-cancer screening

## CCc1c(O)c2c(c(O)c1O[C@H]1O[C@@H](COC(C)=O)[C@H](OC(C)=O)[C@@H](CC(C)=O)[C@@H]1OC(C)=O)C(=O)C(O[C@@H]1O[C@H](COC(C)=O)[C@@H](OC(C)=O)[C@H](OC(C)=O)[C@H]1OC(C)=O)=C(O[C@@H]1O[C@H](COC(C)=O)[C@@H](OC(C)=O)[C@H](OC(C)=O)[C@H]1OC(C)=O)C2=O [Compound 6]
[1]; Homo sapiens, MOLT-4
  GI50: 783 nM
[1]; Homo sapiens, MOLT-4, read-out: LC 50%
  CC50: > 10 µM
[1]; MOLT-4, Leukemia
  GI 100%: 3.91 µM
[2]; K562
  GI50: 238 nM
[2]; K562, read-out: LC 50%
  CC50: > 10 µM
[3]; Homo sapiens
  GI50: 8.76 µM
[3]; Homo sapiens, read-out: LC 50%
  CC50: > 10 µM
[3]; Renal Cancer
  GI 100%: >10 µM
[4]
  activity in KRAS-mutation-harboring cancer cells (in words): reasonable potency
[5]; DU-145, Prostate Cancer
  GI 100%: >10 µM
[5]; Homo sapiens, DU-145
  GI50: 5.28 µM
[5]; Homo sapiens, DU-145, read-out: LC 50%
  CC50: > 10 µM
[6]; BT-549, Breast Cancer
  GI 100%: 3.27 µM
[6]; Homo sapiens, BT-549
  GI50: 1490 nM
[6]; Homo sapiens, BT-549, read-out: LC 50%
  CC50: 7.21 µM
[7]
  IC90: 2.5 µg/mL (≈ 1.99 µM)
[8]; Homo sapiens, SK-MEL-5
  GI50: 5 µM
[8]; Homo sapiens, SK-MEL-5, read-out: LC 50%
  CC50: > 10 µM
[8]; SK-MEL-5, Melanoma
  GI 100%: >10 µM
[9]; Homo sapiens
  GI50: 1730 nM
[9]; Homo sapiens, read-out: LC 50%
  CC50: 6.25 µM
[9]; Melanoma
  GI 100%: 3.29 µM
[10]; Homo sapiens, TK-10
  GI50: 2760 nM
[10]; Homo sapiens, TK-10, read-out: LC 50%
  CC50: > 10 µM
[10]; TK-10, Renal Cancer
  GI 100%: >10 µM
[11]; Homo sapiens, SF-268
  GI50: 2460 nM
[11]; Homo sapiens, SF-268, read-out: LC 50%
  CC50: > 10 µM
[11]; SF-268, CNS Cancer
  GI 100%: 7.71 µM
[12]; Homo sapiens, SK-MEL-28
  GI50: 1460 nM
[12]; Homo sapiens, SK-MEL-28, read-out: LC 50%
  CC50: 6.63 µM
[12]; SK-MEL-28, Melanoma
  GI 100%: 3.11 µM
[13]; Homo sapiens, OVCAR-8
  GI50: 4.22 µM
[13]; Homo sapiens, OVCAR-8, read-out: LC 50%
  CC50: > 10 µM
[13]; OVCAR-8, Ovarian Cancer
  GI 100%: >10 µM
[14]; Homo sapiens, OVCAR-4
  GI50: 5.71 µM
[14]; Homo sapiens, OVCAR-4, read-out: LC 50%
  CC50: > 10 µM
[14]; OVCAR-4, Ovarian Cancer
  GI 100%: >10 µM
[15]; 786-0, Renal Cancer
  GI 100%: 5.54 µM
[15]; Homo sapiens, 786-0
  GI50: 2510 nM
[15]; Homo sapiens, 786-0, read-out: LC 50%
  CC50: > 10 µM
[16]; Homo sapiens, T47D
  GI50: 4.53 µM
[16]; Homo sapiens, T47D, read-out: LC 50%
  CC50: 9.35 µM
[16]; T-47D, Breast Cancer
  GI 100%: 2.06 µM
[17]; Homo sapiens, Malme-3M
  GI50: 261 nM
[17]; Homo sapiens, Malme-3M, read-out: LC 50%
  CC50: 2800 nM
[17]; MALME-3M, Melanoma
  GI 100%: 0.723 µM
[18]; Homo sapiens, NCI-H23
  GI50: 4.17 µM
[18]; Homo sapiens, NCI-H23, read-out: LC 50%
  CC50: > 10 µM
[18]; NCI-H23, Non-small cell lung carcinoma
  GI 100%: >10 µM
[19]; Homo sapiens, MDA-MB-231
  GI50: 1750 nM
[19]; Homo sapiens, MDA-MB-231, read-out: LC 50%
  CC50: 9.52 µM
[19]; MDA-MB-231/ATCC, Breast Cancer
  GI 100%: 4.09 µM
[20]; Homo sapiens
  GI50: 115 nM
[20]; Leukemia
  GI 100%: 0.422 µM
[21]; COLO 205, Colon Cancer
  GI 100%: 1.26 µM
[21]; Homo sapiens, COLO 205
  GI50: 232 nM
[21]; Homo sapiens, COLO 205, read-out: LC 50%
  CC50: 4.78 µM
[22]; Homo sapiens, UACC-257
  GI50: 2780 nM
[22]; Homo sapiens, UACC-257, read-out: LC 50%
  CC50: > 10 µM
[22]; UACC-257, Melanoma
  GI 100%: >10 µM
[23]; Homo sapiens
  GI50: 2650 nM
[23]; Homo sapiens, read-out: LC 50%
  CC50: > 10 µM
[23]; Leukemia
  GI 100%: 8.4 µM
